We go through 15 compounds from US11168093B2, “Thienopyridine inhibitors of RIPK2” (Celgene Corporation, priority 2018, dated 2021).

Some results are limits rather than exact numbers.

Sequence of RIPK2 enzyme (O43353 whole entry): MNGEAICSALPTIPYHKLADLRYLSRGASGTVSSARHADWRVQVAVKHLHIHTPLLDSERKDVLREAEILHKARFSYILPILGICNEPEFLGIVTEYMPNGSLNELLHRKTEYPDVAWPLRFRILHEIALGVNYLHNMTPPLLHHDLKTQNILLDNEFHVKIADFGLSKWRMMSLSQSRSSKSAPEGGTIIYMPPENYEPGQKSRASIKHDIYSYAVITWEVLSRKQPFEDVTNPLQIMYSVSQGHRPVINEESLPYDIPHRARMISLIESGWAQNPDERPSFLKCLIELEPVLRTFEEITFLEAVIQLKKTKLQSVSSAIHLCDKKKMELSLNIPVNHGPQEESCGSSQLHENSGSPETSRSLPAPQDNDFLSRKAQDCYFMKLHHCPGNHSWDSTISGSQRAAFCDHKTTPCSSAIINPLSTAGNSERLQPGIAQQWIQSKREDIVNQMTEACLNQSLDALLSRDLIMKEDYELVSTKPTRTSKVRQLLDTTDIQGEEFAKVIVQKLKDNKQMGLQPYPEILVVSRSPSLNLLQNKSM

The test has as its target RIPK2 enzyme (Homo sapiens (Human), UniProt O43353). Kind of test: RIPK2 inhibition assay, TR-FRET LanthaScreen Tracer 199 screening assay. The format is binding. The following applies: 5 nM RIPK2 enzyme, Tracer 199 at 50 nM, Eu-anti-His Antibody at 2 nM, 1 hour incubation. Here is the method: All data was collected using a standard TR-FRET screening assay: LanthaScreen Tracer 199 at 50 nM, Eu-anti-His Antibody at 2 nM, 5 nM RIPK2 enzyme, and 1× Kinase Reaction Buffer. There was a 1 hour incubation prior to read. TR-FRET signal of the interaction (340Ex/665Em/615Em) was read at room temperature with standard setting. Background was subtracted of wells containing no enzyme. Percent inhibition was based on uninhibited controls log (inhibitor) vs. response. Variable slope equation was used with no constraints: Log Y=Bottom+(Top−Bottom)/(1+10^((Log IC50−X)*Hill Slope)).
The compound numbers correspond to the compound numbers above.
For orientation: TR-FRET usually uses a lanthanide donor and a delayed reading to cut background.
Take `CCN1CCC(c2cc3c(Nc4ccc5scnc5c4)ccnc3s2)C12CCOCC2` (stereo not drawn) [Example 48, N-(2-(1-ethyl-8-oxa-1-azaspiro[4.5]decan-4-yl)thieno[2,3-b]pyridin-4-yl)benzo[d]thiazol-5-amine]: the IC50 was at least 50 nM.

`C[C@H]1NCCC=C1c1cc2c(Nc3cc4ncsc4cc3F)ccnc2s1` [Example 49a, 6-fluoro-N-(2-(2-methyl-1,2,5,6-tetrahydropyridin-3-yl)thieno[2,3-b]pyridin-4-yl)benzo[d]thiazol-5-amine] gave an IC50 of 10 to 20 nM. The compound `C[C@@H]1NCCC=C1c1cc2c(Nc3cc4ncsc4cc3F)ccnc2s1` [Example 49b, 6-fluoro-N-(2-(2-methyl-1,2,5,6-tetrahydropyridin-3-yl)thieno[2,3-b]pyridin-4-yl)benzo[d]thiazol-5-amine] returned an IC50 of at most 10 nM. As for `C[C@H]1NCCC[C@H]1c1cc2c(Nc3cc4ncsc4cc3F)ccnc2s1` [Example 50b, 6-fluoro-N-(2-((2R)-2-methylpiperidin-3-yl)thieno[2,3-b]pyridin-4-yl)benzo[d]thiazol-5-amine], the figure is at most 10 nM; as for `C[C@@H]1NCCC[C@@H]1c1cc2c(Nc3cc4ncsc4cc3F)ccnc2s1` [Example 51b], 20 to 50 nM. `CCN1CCC=C(c2cc3c(Nc4cc5ncsc5cc4F)ccnc3s2)[C@H]1C` [Example 52a, N-(2-(1-ethyl-2-methyl-1,2,5,6-tetrahydropyridin-3-yl)thieno[2,3-b]pyridin-4-yl)-6-fluorobenzo[d]thiazol-5-amine] showed an IC50 of 10 to 20 nM. As for `CCN1CCC=C(c2cc3c(Nc4cc5ncsc5cc4F)ccnc3s2)[C@@H]1C` [Example 52b, N-(2-(1-ethyl-2-methyl-1,2,5,6-tetrahydropyridin-3-yl)thieno[2,3-b]pyridin-4-yl)-6-fluorobenzo[d]thiazol-5-amine], the IC50 was 10 to 20 nM.

On to `CCN1CCC[C@@H](c2cc3c(Nc4cc5ncsc5cc4F)ccnc3s2)[C@H]1C` [Example 53b, N-(2-((2R)-1-ethyl-2-methylpiperidin-3-yl)thieno[2,3-b]pyridin-4-yl)-6-fluorobenzo[d]thiazol-5-amine], for which the IC50 is at most 10 nM.

`CCN1CCC[C@H](c2cc3c(Nc4cc5ncsc5cc4F)ccnc3s2)[C@@H]1C` [Example 54b, N-(2-(1-ethyl-2-methylpiperidin-3-yl)thieno[2,3-b]pyridin-4-yl)-6-fluorobenzo[d]thiazol-5-amine] yielded an IC50 of 20 to 50 nM. `C[C@H]1NCCC[C@@H]1c1cc2c(Nc3ccc4scnc4c3F)ccnc2s1` [Example 56a, 4-fluoro-N-(2-((2R,3S)-2-methyl-piperidin-3-yl)thieno[2,3-b]pyridin-4-yl)benzo[d]thiazol-5-amine] gave an IC50 of at most 10 nM.

Consider `C[C@H]1NCCC[C@H]1c1cc2c(Nc3ccc4scnc4c3F)ccnc2s1` [Example 56b, 4-fluoro-N-(2-((2R,3R)-2-methyl-piperidin-3-yl)thieno[2,3-b]pyridin-4-yl)benzo[d]thiazol-5-amine], for which the IC50 is at most 10 nM.

For `C[C@@H]1NCCC[C@H]1c1cc2c(Nc3ccc4scnc4c3F)ccnc2s1` [Example 57a, 4-fluoro-N-(2-((2S,3R)-2-methylpiperidin-3-yl)thieno-[2,3-b]pyridin-4-yl)benzo[d]thiazol-5-amine], the IC50 lay within 10 to 20 nM. Take `C[C@@H]1NCCC[C@@H]1c1cc2c(Nc3ccc4scnc4c3F)ccnc2s1` [Example 57b, 4-fluoro-N-(2-((2S,3S)-2-methylpiperidin-3-yl)thieno-[2,3-b]pyridin-4-yl)benzo[d]thiazol-5-amine]: the IC50 was at most 10 nM. In turn, `C[C@@H]1[C@@H](c2cc3c(Nc4ccc5scnc5c4F)ccnc3s2)CCCN1C` [Example 58, N-(2-((2R,3S)-1,2-dimethylpiperidin-3-yl)thieno[2,3-b]pyridin-4-yl)-4-fluorobenzo[d]thiazol-5-amine] displayed an IC50 of at most 10 nM. `C[C@H]1[C@H](c2cc3c(Nc4ccc5scnc5c4F)ccnc3s2)CCCN1C` [Example 59, N-(2-((2S,3R)-1,2-dimethylpiperidin-3-yl)thieno[2,3-b]pyridin-4-yl)-4-fluorobenzo[d]thiazol-5-amine]: the IC50 was at most 10 nM.

Broadly, the IC50 is the concentration needed to halve the response being measured.
